Test results from patent publication US11129801B2 (SigmaThera SAS, priority 2016, dated 2021).

Test system: rat primary dopaminergic neurons (TH positive neurons)
Test: Survival of primary dopaminergic neurons injured by 6OHDA
Format: cell-based
Conditions: 6OHDA 20 μM, 48 h
Protocol: Rat dopaminergic neurons were cultured as described (Schinelli S, et al. Journal of neurochemistry 50(6): 1900-1907). Briefly pregnant female rats of 15 days gestation were killed by cervical dislocation (Rats Wistar; Janvier) and the foetuses removed from the uterus. The embryonic midbrains were removed and placed in ice-cold medium of Leibovitz 15 (L15; PanBiotech, Ref P04-27055, Batch: 8810315) containing 2% of Penicillin-Streptomycin (PS; PanBiotech, ref: P06-07100, Batch: 7511015) and 1% of bovine serum albumin (BSA; PanBiotech, Ref: P06-1391100, Batch: H140904). Only the ventral portions of the mesencephalic flexure were used for the cell preparations as this region of the developing brain is rich in dopaminergic neurons. The midbrains were dissociated by trypsinization for 20 minutes (min) at 37° C. (Trypsin EDTA 1×; PanBiotech, Ref: P10-023100, batch: 1670415). The reaction was stopped by the addition of Dulbecco's modified Eagle's medium (DMEM; PanBiotech, Ref: P04-03600, Batch: 9021115) containing DNase I grade II (0.1 mg/ml; PanBiotech, Ref: P60-37780100, Batch: H140508) and 10% of fetal calf serum (FCS; Invitrogen). Cells were then mechanically dissociated by 3 passages through a 10 ml pipette. Cells were then centrifuged at 180×g for 10 min at 4° C. on a layer of BSA (3.5%) in L15 medium. The supernatant was discarded and the cell pellets were re-suspended in a defined culture medium consisting of Neurobasal (Invitrogen, Ref: 21103, Batch: 1754639) supplemented with B27 (2%; Invitrogen, ref: 17504, batch: 1799273), L-glutamine (2 mM; PanBiotech, Ref: P04-80100, Batch: 6620314) and 2% of PS, 10 ng/mL of BDNF (PanBiotech, Ref: CB-1115002, Batch: 121027) and 1 ng/mL of GDNF (PanBiotech, Ref: CB-1116001, Batch: H151004). Viable cells were counted in a Neubauer cytometer using the trypan blue exclusion test. The cells were seeded at a density of 4×10^4 cells/well in 96 well-plates (pre-coated with poly-D-lysine; Greiner, Ref: E150033VJ) and were cultured at 37° C. in a humidified air (95%)/CO2 (5%) atmosphere. Half of the medium was changed every 2 days with fresh medium. In these conditions, after 5 days of culture, astrocytes are present in the culture and release growth factor allowing neurons differentiation. Five to six percent of the neuronal cell population was dopaminergic neurons.
Briefly, on day 6 of culture, cells were pre-treated for 1 h with test compound or reference compound then intoxicated with 6OHDA (20 μM) for 48 h. The following conditions were done:
[…]_+6OHDA (20 μM, 48 h+BDNF (50 ng/ml) as a reference compound
One culture was done with 6 wells per condition. […]
The data were expressed as mean±s.e.m. […]

For `CCC(C/C=C/c1ccccc1)(c1ccccc1)N(C)CC1CC1` (single isomer, unassigned; (+)) [igmesine, (+)-(E)-N-(cyclopropylmethyl)-N-methyl-3,6-diphenylhex-5-en-3-amine], the TH positive neurons (0.3 μM) was 94.58 % of the control, the TH positive neurons (1 μM) was 100.49 % of the control and the TH positive neurons (3 μM) was 87.68 % of the control.

B1: BDNF: Brain-derived neurotrophic factor, used as a reference compound (protein, UniProt P23560 19-247, looked up)
Neurotrophic factor BDNF …: APMKEANIRGQGGLAYPGVRTHGTLESVNGPKAGSRGLTSLADTFEHVIEELLDEDQKVRPNEENNKDADLYTSRVMLSSQVPLEPPLLFLLEEYKNYLDAANMSMRVRRHSDPARRGELSVCDSISEWVTAADKKTAVDMSGGTVTVLEKVPVSKGQLKQYFYETKCNPMGYTKEGCRGIDKRHWNSQCRTTQSYVRALTMDSKKRIGWRFIRIDTSCVCTLTIKRGR
For B1, the TH positive neurons (50 ng/mL) was 91.03 % of the control.
